Experimental data taken from US12173018B2, “Penicillin-binding protein inhibitors” (priority 2018, dated 2024).
Values after ≈ are worked out from the molar mass of the structure shown. Like-named read-outs stand apart in the source and are kept apart here.

What was measured:
E. coli PBP3 = E. coli PBP3 (Escherichia coli (strain K12), UniProt P0AD68); assay: E. coli PBP3 Bocillin-FL fluorescence polarization competition binding assay
How it was run: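 Steps: purified PBP (1.5 μM final) mixed with compound (0–1000 μM) in 50 mM Hepes pH 8.0, 300 mM NaCl, 5% glycerol; Bocillin-FL added to 0.1 μM; FP (ex 490, em 520 nm) followed for 60 min. Concentration reducing Bocillin-FL binding reported as EC50.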

E. coli AG100 = assay: Broth microdilution MIC, E. coli AG100 (wild-type parent); format: cell-based; conditions: Escherichia coli; wild-type parent E. coli AG100, broth microdilution; read-out: MIC E. coli AG100
How it was run: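 Starting inoculum of 5×10^5 CFU/mL, from colonies grown 3-5 h in Mueller-Hinton broth with divalent cations, added to two-fold compound dilution series.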

K. pneumoniae 848844 = assay: microbe, parasite or virus in culture; format: cell-based, Klebsiella pneumoniae
How it was run: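 Visual MIC readout after 16-20 h at 37° C in CLSI-format microdilution. Compounds tested as 2-fold series against a 5×10^5 CFU/mL inoculum in cation-supplemented Mueller-Hinton broth.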

[1] = test system: N. gonorrhoeae ATCC 49226; assay: Liquid broth MIC, N. gonorrhoeae ATCC 49226; format: cell-based; conditions: Neisseria gonorrhoeae
How it was run: (§1)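 In liquid broth, wild-type reference gonococci at 5×10^5 CFU/mL faced twofold compound dilutions for 40-42 hours (36° C, 5% CO2). The MIC was the lowest concentration with no growth seen by eye.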

N. gonorrhoeae WHO F = assay: Liquid broth MIC, N. gonorrhoeae WHO F; format: cell-based; conditions: Neisseria gonorrhoeae, read-out: Minimum Inhibitory Concentration, N. gonorrhoeae WHO F
How it was run: as §1

N. gonorrhoeae FA19 = assay: Liquid broth MIC, N. gonorrhoeae FA19; format: cell-based; conditions: Neisseria gonorrhoeae
How it was run: as §1

[2] = Klebsiella pneumoniae, K. pneumoniae 848844 producing SHV-11 and KPC-2, read-out: MIC K. pneumoniae 848844
[3] = ATCC49226, N. gonorrhoeae ATCC 49226, liquid broth, read-out: Minimum Inhibitory Concentration, N. gonorrhoeae ATCC 49226
[4] = N. gonorrhoeae WHO F, liquid broth
[5] = N. gonorrhoeae FA19, liquid broth, read-out: Minimum Inhibitory Concentration, N. gonorrhoeae FA19
[6] = fluorescence polarization competition binding with Bocillin-FL, read-out: E. coli K12 PBP3 Potency

E. coli PBP3, sequence (P0AD68 whole entry): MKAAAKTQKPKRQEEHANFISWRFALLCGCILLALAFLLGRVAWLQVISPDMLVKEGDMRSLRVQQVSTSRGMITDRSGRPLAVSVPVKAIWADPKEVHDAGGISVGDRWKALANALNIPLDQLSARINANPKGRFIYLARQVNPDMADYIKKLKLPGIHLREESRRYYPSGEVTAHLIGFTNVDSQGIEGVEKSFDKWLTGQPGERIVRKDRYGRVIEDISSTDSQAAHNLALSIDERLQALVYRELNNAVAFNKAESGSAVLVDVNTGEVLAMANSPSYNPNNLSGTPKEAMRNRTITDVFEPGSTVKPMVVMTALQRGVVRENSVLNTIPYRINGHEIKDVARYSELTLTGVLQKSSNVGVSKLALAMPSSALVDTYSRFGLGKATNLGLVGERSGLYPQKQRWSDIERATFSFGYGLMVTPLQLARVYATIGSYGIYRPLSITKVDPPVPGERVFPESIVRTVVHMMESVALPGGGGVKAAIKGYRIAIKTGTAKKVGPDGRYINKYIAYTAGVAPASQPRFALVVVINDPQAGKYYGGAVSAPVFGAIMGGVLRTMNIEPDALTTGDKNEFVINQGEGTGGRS

Compound	EC50 (E. coli PBP3) [µM]	MIC (E. coli AG100) [µg/mL]	MIC (K. pneumoniae 848844; [2]) [µg/mL]	MIC [1, 3] [µg/mL]	MIC (N. gonorrhoeae WHO F; [4]) [µg/mL]	MIC (N. gonorrhoeae FA19; [5]) [µg/mL]	EC50 (E. coli PBP3; [6]) [µM]	MIC ([1]; ATCC49226, read-out: Minimum Inhibitory Concentration, N. gonorrhoeae ATCC 49226) [µg/mL]	MIC (N. gonorrhoeae WHO F) [µg/mL]	MIC (N. gonorrhoeae FA19; FA19, read-out: Minimum Inhibitory Concentration, N. gonorrhoeae FA19) [µg/mL]	MIC (K. pneumoniae 848844; Klebsiella pneumoniae, 848844, read-out: MIC K. pneumoniae 848844) [µg/mL]
CC(=O)NCCN1CCN(C(=O)NC(C(=O)N[C@H]2Cc3cccc(C(=O)O)c3OB2O)c2ccc(O)c(O)c2Cl)C(=O)C1=O (stereo partly drawn) [Example 228, (3R)-3-(2-(4-(2-acetamidoethyl)-2,3-dioxopiperazine-1-carboxamido)-2-(2-chloro-3,4-dihydroxyphenyl)acetamido)-2-hydroxy-3,4-dihydro-2H-benzo[e][1,2]oxaborinine-8-carboxylic acid]	30 to 500	2 to 4	2 to 4	> 64	4 to 8 (≈ 6.33 to 12.7 µM)	> 64					
CS(=O)(=O)NCCN1CCN(C(=O)NC(C(=O)N[C@H]2Cc3cccc(C(=O)O)c3OB2O)c2ccc(O)c(O)c2Cl)C(=O)C1=O (stereo partly drawn) [Example 229, (3R)-3-(2-(2-chloro-3,4-dihydroxyphenyl)-2-(4-(2-(methylsulfonamido)ethyl)-2,3-dioxopiperazine-1-carboxamido)acetamido)-2-hydroxy-3,4-dihydro-2H-benzo[e][1,2]oxaborinine-8-carboxylic acid]		2 to 4	2 to 4	> 64	4 to 8 (≈ 5.99 to 12 µM)	> 64	< 30				
NCCN1CCN(C(=O)N[C@@H](C(=O)N[C@H]2Cc3ccc(F)c(C(=O)O)c3OB2O)c2ncc(O)cc2F)C(=O)C1=O [Example 230, (R)-3-((R)-2-(4-(2-aminoethyl)-2,3-dioxopiperazine-1-carboxamido)-2-(3-fluoro-5-hydroxypyridin-2-yl)acetamido)-7-fluoro-2-hydroxy-3,4-dihydro-2H-benzo[e][1,2]oxaborinine-8-carboxylic acid]		8 to 16	32 to 64	4 to 8 (≈ 6.94 to 13.9 µM)	0.25 to 0.5 (≈ 0.434 to 0.868 µM)	4 to 8 (≈ 6.94 to 13.9 µM)	< 30				
NCCCN1CCN(C(=O)NC(C(=O)N[C@H]2Cc3cccc(C(=O)O)c3OB2O)c2ccc(O)c(O)c2Cl)C(=O)C1=O (stereo partly drawn) [Example 233, (3R)-3-(2-(4-(3-aminopropyl)-2,3-dioxopiperazine-1-carboxamido)-2-(2-chloro-3,4-dihydroxyphenyl)acetamido)-2-hydroxy-3,4-dihydro-2H-benzo[e][1,2]oxaborinine-8-carboxylic acid]	30 to 500	0.5 to 1	2 to 4	> 64	4 to 8 (≈ 6.62 to 13.2 µM)	16 to 32 (≈ 26.5 to 53 µM)					
CCN1C[C@H](CO)N(C(=O)NC(C(=O)N[C@H]2Cc3cccc(C(=O)O)c3OB2O)c2ncc(O)cc2F)C(=O)C1=O (stereo partly drawn) [Example 234, (3R)-3-(2-((R)-4-ethyl-6-(hydroxymethyl)-2,3-dioxopiperazine-1-carboxamido)-2-(3-fluoro-5-hydroxypyridin-2-yl)acetamido)-2-hydroxy-3,4-dihydro-2H-benzo[e][1,2]oxaborinine-8-carboxylic acid]		> 128	> 128				< 30	16 to 32 (≈ 27.9 to 55.8 µM)	0.25 to 0.5 (≈ 0.436 to 0.872 µM)	16 to 32 (≈ 27.9 to 55.8 µM)	
CCNC(=O)NCCN1CCN(C(=O)NC(C(=O)N[C@H]2Cc3cccc(C(=O)O)c3OB2O)c2ccc(O)c(O)c2Cl)C(=O)C1=O (stereo partly drawn) [Example 235, (3R)-3-(2-(2-chloro-3,4-dihydroxyphenyl)-2-(4-(2-(3-ethylureido)ethyl)-2,3-dioxopiperazine-1-carboxamido)acetamido)-2-hydroxy-3,4-dihydro-2H-benzo[e][1,2]oxaborinine-8-carboxylic acid]		8 to 16	2 to 4	> 64	1 to 2 (≈ 1.51 to 3.03 µM)	> 64	< 30				
NCCCN1CCN(C(=O)N[C@@H](C(=O)N[C@H]2Cc3ccc(F)c(C(=O)O)c3OB2O)c2ccc(O)c(O)c2Cl)C(=O)C1=O [Example 236, (R)-3-((R)-2-(4-(3-aminopropyl)-2,3-dioxopiperazine-1-carboxamido)-2-(2-chloro-3,4-dihydroxyphenyl)acetamido)-7-fluoro-2-hydroxy-3,4-dihydro-2H-benzo[e][1,2]oxaborinine-8-carboxylic acid]	30 to 500	0.5 to 1	0.5 to 1	16 to 32 (≈ 25.7 to 51.5 µM)	1 to 2 (≈ 1.61 to 3.22 µM)	4 to 8 (≈ 6.43 to 12.9 µM)					
CCN1C[C@H](CO)N(C(=O)NC(C(=O)N[C@H]2Cc3ccc(F)c(C(=O)O)c3OB2O)c2ccc(O)c(O)c2Cl)C(=O)C1=O (stereo partly drawn) [Example 237, (3R)-3-(2-(2-chloro-3,4-dihydroxyphenyl)-2-((R)-4-ethyl-6-(hydroxymethyl)-2,3-dioxopiperazine-1-carboxamido)acetamido)-7-fluoro-2-hydroxy-3,4-dihydro-2H-benzo[e][1,2]oxaborinine-8-carboxylic acid]		0.5 to 1	2 to 4	4 to 8 (≈ 6.42 to 12.8 µM)	0.25 to 0.5 (≈ 0.401 to 0.803 µM)	4 to 8 (≈ 6.42 to 12.8 µM)	< 30				
CCN1C[C@H](CCN)N(C(=O)NC(C(=O)N[C@H]2Cc3ccc(F)c(C(=O)O)c3OB2O)c2ccc(O)c(O)c2Cl)C(=O)C1=O (stereo partly drawn) [Example 238, (3R)-3-(2-((S)-6-(2-aminoethyl)-4-ethyl-2,3-dioxopiperazine-1-carboxamido)-2-(2-chloro-3,4-dihydroxyphenyl)acetamido)-7-fluoro-2-hydroxy-3,4-dihydro-2H-benzo[e][1,2]oxaborinine-8-carboxylic acid]	30 to 500	2 to 4		> 64	4 to 8 (≈ 6.29 to 12.6 µM)	> 64					8 to 16
CNCCN1CCN(C(=O)NC(C(=O)N[C@H]2Cc3cccc(C(=O)O)c3OB2O)c2ccc(O)c(O)c2Cl)C(=O)C1=O (stereo partly drawn) [Example 239, (3R)-3-(2-(2-chloro-3,4-dihydroxyphenyl)-2-(4-(2-(methylamino)ethyl)-2,3-dioxopiperazine-1-carboxamido)acetamido)-2-hydroxy-3,4-dihydro-2H-benzo[e][1,2]oxaborinine-8-carboxylic acid]	30 to 500	2 to 4	2 to 4	> 64	4 to 8 (≈ 6.62 to 13.2 µM)	> 64					
